Measured values reported in PMC5493200 (ACS infectious diseases, 2016).
Values after ≈ are worked out from the molar mass of the structure shown. Where two headings read alike, the source gives them in different places.

What was measured:
M. tuberculosis H37Rv = test: microbe, parasite or virus in culture; assay type: cell-based, Mycobacterium tuberculosis; details: for MIC (H37Rv): Table 5; for H37Rv MIC: Tables 1-4 and text
HepG2 cells = test: Mammalian cytotoxicity; assay type: cell-based
Protein binding, mouse = assay type: in vitro ADME
Protein binding, human = assay type: in vitro ADME
[1] = test system: M. tuberculosis H37Rv Rv1258c knockout (KO); test: microbe, parasite or virus in culture; assay type: cell-based; details: for Rv1258c KO MIC: Tables 1-4 and text, 7 days, 7H9 broth
[2] = Microsomal stability, mouse; assay type: in vitro ADME; details: mouse liver microsomes
M. tuberculosis Erdman = test: Mouse model of acute tuberculosis infection; assay type: in vivo; details: 200 mg/kg BID, 9 days, subcutaneous, vs control
[3] = target: Purified 70S M. smegmatis bacterial ribosomes (Mycolicibacterium smegmatis, UniProt A0QSG6); test: Ribosomal translation inhibition; assay type: biochemical; details: inhibits luciferase activity by 50%
Sequence of Purified 70S M. smegmatis bacterial ribosomes (A0QSG6 whole entry): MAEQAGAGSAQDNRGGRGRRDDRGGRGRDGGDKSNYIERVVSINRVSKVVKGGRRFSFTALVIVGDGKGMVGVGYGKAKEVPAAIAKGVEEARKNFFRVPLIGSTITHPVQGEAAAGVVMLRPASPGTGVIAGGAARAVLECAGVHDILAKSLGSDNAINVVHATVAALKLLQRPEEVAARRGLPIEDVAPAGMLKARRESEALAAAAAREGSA

[4] = ref [18]; cited from earlier work
[5] = Microsomal stability, human; assay type: in vitro ADME; details: human liver microsomes
M. bovis BCG = assay type: cell-based; details: average of 2–3 replicates, standard deviation in parenthesis
Rv1258c efflux pump = details: H37Rv MIC / Rv1258c KO MIC
[6] = mouse liver microsomes; starred compounds; ref [4]; cited from earlier work
[7] = human liver microsomes; starred compounds; ref [4]; cited from earlier work

Structure (SMILES)	MIC (H37Rv) (M. tuberculosis H37Rv)	H37Rv MIC (M. tuberculosis H37Rv)	Cytotoxicity (HepG2) (HepG2 cells)	Protein binding mouse (Protein binding, mouse)	Protein binding human (Protein binding, human)	Rv1258c KO MIC [1]	Microsomal stability t1/2 mouse [2]	Reduction of bacterial load in lungs (M. tuberculosis Erdman; first new trial (Figure 3B))	Ribosome IC50 [3]	Phase II conjugative metabolism [4]	Microsomal stability t1/2 human [5]	Post Antibiotic Effect (M. bovis BCG)	Reduction of bacterial load in lungs (M. tuberculosis Erdman; second new trial (Figure 3C))	MIC (M. tuberculosis H37Rv; Mycobacterium tuberculosis, H37RV, 168 h, read-out: H37Rv MIC)	Efflux Ratio (Rv1258c efflux pump)	MIC ([1]; Mycobacterium tuberculosis, H37RV, 168 h, read-out: Rv1258c KO MIC)	Microsomal stability t1/2 mouse [6]	Microsomal stability t1/2 human [7]
Br.Br.Br.CN[C@@H]1[C@H](O)[C@H](NC)[C@H]2O[C@]3(O)[C@H](O[C@@H]2[C@H]1O)O[C@H](C)C[C@H]3NC(=O)Cc1cc(Cl)c(C)cn1 [Compound 47, 3′-Dihydro-3′-deoxy-3′(R)-(4-chloro-5-methylpyridin-2-yl)acetylamino spectinomycin trihydrobromide]	0.8 µg/mL	0.8 µg/mL	>400 µg/mL	42.7%	43.9%	0.8 µg/mL	>50 h	more than 2 logs	0.23 µg/mL	subject to some phase II conjugative metabolism	>50 h	102 (15) h						
Br.Br.Br.CN[C@@H]1[C@H](O)[C@H](NC)[C@H]2O[C@]3(O)[C@H](O[C@@H]2[C@H]1O)O[C@H](C)C[C@H]3NC(=O)Cc1cc(Cl)c(OC)cn1 [Compound 48, 3′-Dihydro-3′-deoxy-3′(R)-(4-chloro-5-methoxypyridin-2-yl)acetylamino spectinomycin trihydrobromide]	3.1 µg/mL	3.1 µg/mL	>400 µg/mL	72.9%	61.6%	3.1 µg/mL	5.5 h		0.42 µg/mL	subject to metabolism	6.3 h	72 (10) h	1.6 log					
CN[C@@H]1[C@H](O)[C@H](NC)[C@H]2O[C@@]3(O)C(=O)C[C@@H](C)O[C@H]3O[C@@H]2[C@H]1O [SPC, Spectinomycin, reference compound]														100 µg/mL (≈ 301 µM)	16	6.3 µg/mL (≈ 19 µM)	>10 h	2.5 h
